Results published in paper PMC6694100, “The complex of ferric-enterobactin with its transporter from Pseudomonas aeruginosa suggests a two-site model” (Nature Communications, 2019).
Where “and” joins values, the source holds several entries; their conditions need not be identical. Equal entries are not always repeated.

How the values were obtained:
[1] = test system: ∆pfeA(pMMBpfeAR480AQ482A) cells (double-mutant PfeA); test: 55Fe-enterobactin binding and uptake assay, ∆pfeA(pMMBpfeAR480AQ482A); assay type: cell-based, Pseudomonas aeruginosa; conditions: 500 nM ^55Fe-enterobactin, 30 min
Procedure: (§1) Fig. 6 Effects of PfeA mutation in vivo. a Analysis of changes in the transcription of pfeA gene. PAO1 strain, its corresponding deletion mutant ∆pfeA and deletion mutants carrying the expression plasmid of PfeA wild-type (∆pfeA(pMMBpfeA) or the R480A-Q482A mutant (∆pfeA(pMMBpfeAR480AQ482A)) were grown in CAA medium supplemented with 10 µM enterobactin. The data were normalised relative to the reference gene uvrD, and are representative of three independent experiments performed in triplicate (n = 3). The results are given as a ratio between the values obtained for ∆pfeA, ∆pfeA(pMMBpfeA) and ∆pfeA(pMMBpfeAR480AQ482A) over those obtained for the PAO1 strain. b ^55Fe-enterobactin binding at the bacterial surface. Cells were grown as in panel a, and were incubated for 15 min with 200 µM CCCP before initiation of transport assays by the addition of 500 nM ^55Fe-enterobactin. After 30 min incubation, the radioactivity accumulated in the bacteria was counted. The results are expressed as pmol of ^55Fe-enterobactin bound per ml of cells at an OD600 of 1. The experiments have been repeated three times. c ^55Fe-enterobactin binding and uptake. Cells were grown as in panel a, and were incubated with or without 200 µM CCCP before initiation of transport assays by the addition of 500 nM ^55Fe-enterobactin. After 30 min incubations, the radioactivity accumulated in the bacteria was counted. The results are expressed as pmol of ^55Fe-enterobactin bound and transported per ml of cells at an OD600 of 1. The experiments have been repeated three times
(§2) The complex was prepared at ^55Fe concentrations of 50 μM, with a siderophore:iron (mol:mol) ratio of 20:1. P. aeruginosa strains were first grown overnight at 30 °C in LB broth, and were then washed, resuspended and cultured overnight at 30 °C in iron-deficient CAA medium (casamino acid medium, composition: 5 g.l^−1 low-iron CAA (Difco), 1.46 g.l^−1 K2HPO4 3H2O, 0.25 g.l^−1 MgSO4 7H2O) and in the presence of 10 µM enterobactin to induce the expression of PfeA. CAA is a highly iron-restricted medium with iron concentrations of 20 nM[59]. Afterwards bacteria were washed with 50 mM Tris-HCl pH 8.0, and diluted to an OD600 of 1. Cells solutions were divided in two, one batch being treated with 200 μM CCCP. This compound collapses the proton-motive force across the bacterial cell membranes, inhibiting TonB-dependent iron uptake. Binding and transport assays were initiated by adding 500 nM ^55Fe-enterobactin to the bacterial solutions treated or not with CCCP. After 30 min of incubations, cells were centrifuged, and the radioactivity associated to the bacteria was monitored in the cell pellets. For the cells treated with CCCP, the radioactivity in the cell pellets corresponds to the binding of ^55Fe-enterobactin to P. aeruginosa cell surface, since no uptake occurs. In the absence of CCCP, the radioactivity associated to the cells corresponds to ^55Fe-enterobactin binding to the cell surface and the uptake into the bacteria.

[2] = test system: ∆pfeA(pMMBpfeA) cells (native PfeA); test: 55Fe-enterobactin binding and uptake assay, ∆pfeA(pMMBpfeA); assay type: cell-based, Pseudomonas aeruginosa; conditions: cells not treated with CCCP, 500 nM ^55Fe-enterobactin, 30 min
Procedure: as §1, §2

pfeA gene = test: RT-qPCR of pfeA gene transcription in strains grown with 10 µM enterobactin; assay type: cell-based, Pseudomonas aeruginosa; conditions: replicate values, Figure 6a
Procedure: Fig. 6 Effects of PfeA mutation in vivo. a Analysis of changes in the transcription of pfeA gene. PAO1 strain, its corresponding deletion mutant ∆pfeA and deletion mutants carrying the expression plasmid of PfeA wild-type (∆pfeA(pMMBpfeA) or the R480A-Q482A mutant (∆pfeA(pMMBpfeAR480AQ482A)) were grown in CAA medium supplemented with 10 µM enterobactin. The data were normalised relative to the reference gene uvrD, and are representative of three independent experiments performed in triplicate (n = 3). The results are given as a ratio between the values obtained for ∆pfeA, ∆pfeA(pMMBpfeA) and ∆pfeA(pMMBpfeAR480AQ482A) over those obtained for the PAO1 strain. b ^55Fe-enterobactin binding at the bacterial surface. Cells were grown as in panel a, and were incubated for 15 min with 200 µM CCCP before initiation of transport assays by the addition of 500 nM ^55Fe-enterobactin. After 30 min incubation, the radioactivity accumulated in the bacteria was counted. The results are expressed as pmol of ^55Fe-enterobactin bound per ml of cells at an OD600 of 1. The experiments have been repeated three times. c ^55Fe-enterobactin binding and uptake. Cells were grown as in panel a, and were incubated with or without 200 µM CCCP before initiation of transport assays by the addition of 500 nM ^55Fe-enterobactin. After 30 min incubations, the radioactivity accumulated in the bacteria was counted. The results are expressed as pmol of ^55Fe-enterobactin bound and transported per ml of cells at an OD600 of 1. The experiments have been repeated three times […]
Specific pfeA gene transcription was measured by reverse transcription-quantitative PCR (RT-qPCR) from 16 h cultures in CAA medium as described in Supplementary Methods. […]
The supernatant […]
was discarded, and inner membrane proteins were solubilized in lysis buffer with 1% (w/v) N-lauroylsarkosine (Sigma-Aldrich). […]
Quantitative real-time PCR. […] The amounts of specific cDNA were assessed in a StepOne Plus instrument (Applied Biosystems) by using a Power Sybr Green PCR Master Mix […]

[3] = parameters: method as in doi:10.1021/ja00514a037, PMID 12453412; conditions: cited from earlier work

Q: With `O=C(N[C@H]1COC(=O)[C@@H](NC(=O)c2cccc(O)c2O)COC(=O)[C@@H](NC(=O)c2cccc(O)c2O)COC1=O)c1cccc(O)c1O` [Enterobactin, enterobactin] as the molecule, how does the “^55Fe-enterobactin binding at the bacterial surface” value ([1]; CCCP treated cells (200 µM)) read?
A: does not bind

Q: What about the “^55Fe-enterobactin binding and uptake” value ([1]; cells not treated with CCCP) of the same molecule?
A: not competent for the uptake

Q: What about the “^55Fe-enterobactin binding and uptake” value [2] of the same molecule?
A: actively taken up

Q: And the “pfeA gene transcription (RT-qPCR)” value (pfeA gene; strain ΔpfeA (pMMBpfeA R480AQ482A))?
A: 105.534 and 104.018 and 99.7495 and 101.79 and 78.5683 and 111.303 and 100.693 and 97.5736 and 107.445

Q: What about the “pfeA gene transcription (RT-qPCR)” value (pfeA gene; strain ΔpfeA (pMMBpfeA)) of the same molecule?
A: 181.293 and 171.592 and 180.688 and 175.586 and 141.721 and 155.679 and 152.232 and 181.628 and 183.778

Q: And the “pfeA gene transcription (RT-qPCR)” value (pfeA gene; strain ΔpfeA)?
A: 0.006806 and 0.03712 and 0.02449 and 0.03211 and 0.01571 and 0.01618 and 0.0116 and 0.02148 and 0.01134

Q: And the “stability when not bound to iron” value [3]?
A: easily degraded
